Consider four molecules from the NIST ThermoML archive (doi:10.1016/j.fluid.2006.07.011).

SMILES strings stand for the structures. Numbers after ± are expanded uncertainties.

The conditions of data set [1]: 101.33 kPa, Liquid.
Data set [2] is described as follows: Boiling temperature at pressure P. The note with it: 101.33 kPa; Liquid; Distillation.
Data set [3] in a line: refractive index (Na D-line) (dimensionless). The note with it: 293.15 K; 101.33 kPa; Liquid; Standard Abbe refractometry.

The mass density is the mass of a sample divided by its volume. What is called refractive index is the speed of light in vacuum divided by its phase velocity in the sample. Consider `O=CO` [formic acid], for which the mass density in data set [1] (293.15 K) is recorded as 1218.5 ± 2.5 kg/m3. For the same molecule, the “Boiling temperature at pressure P” value in data set [2] was found to be 109.90 ± 2 °C. In data set [3], the refractive index stood at 1.3711 ± 0.0008.
For `CC(C)c1ccccc1` [isopropylbenzene], in data set [1] (298.15 K), the mass density was found to be 863.75 ± 0.85 kg/m3. The “Boiling temperature at pressure P” value in data set [2] was 152.39 ± 0.5 °C. In addition, the refractive index in data set [3] is recorded as 1.4913 ± 0.0008.
Regarding `CC(=O)O` [acetic acid], the mass density in data set [1] (298.15 K) came to 1044.3 ± 0.26 kg/m3. For the same molecule, the “Boiling temperature at pressure P” value in data set [2] came out at 117.70 ± 0.5 °C. Moreover, the refractive index in data set [3] is 1.3721 ± 0.0007.
In the same order, the values of `CCC(=O)O` [propanoic acid] are 988 ± 0.53 kg/m3, 141.00 ± 0.5 °C and 1.3811 ± 0.0008.
